42 compounds from patent US20240228482A1, “COMPOUNDS, COMPOSITIONS AND METHODS OF TREATING CANCER” (HOTSPOT THERAPEUTICS, INC., priority 2021, published 2024) can be followed below.

Read-outs that look alike come from different tables or passages of the source.

In this experiment the target is T1, CBL-B (Homo sapiens, UniProt Q13191).
T1 construct: GST
The experiment in a line: CBL-B TR-FRET IC50 screening (E1/E2 ubiquitination, Biotin-Ubiquitin, Anti GST-Tb donor / Streptavidin-d2 acceptor). Format: biochemical. The conditions noted are these: second part of Table 2 (head 'Patent Cmpd No / Updated Activity'), same CBL-B TR-FRET IC50 bins A-F. In general terms: Time-resolved FRET reads energy transfer from a long-lived donor to a nearby acceptor.

T1 sequence (Q13191 whole entry): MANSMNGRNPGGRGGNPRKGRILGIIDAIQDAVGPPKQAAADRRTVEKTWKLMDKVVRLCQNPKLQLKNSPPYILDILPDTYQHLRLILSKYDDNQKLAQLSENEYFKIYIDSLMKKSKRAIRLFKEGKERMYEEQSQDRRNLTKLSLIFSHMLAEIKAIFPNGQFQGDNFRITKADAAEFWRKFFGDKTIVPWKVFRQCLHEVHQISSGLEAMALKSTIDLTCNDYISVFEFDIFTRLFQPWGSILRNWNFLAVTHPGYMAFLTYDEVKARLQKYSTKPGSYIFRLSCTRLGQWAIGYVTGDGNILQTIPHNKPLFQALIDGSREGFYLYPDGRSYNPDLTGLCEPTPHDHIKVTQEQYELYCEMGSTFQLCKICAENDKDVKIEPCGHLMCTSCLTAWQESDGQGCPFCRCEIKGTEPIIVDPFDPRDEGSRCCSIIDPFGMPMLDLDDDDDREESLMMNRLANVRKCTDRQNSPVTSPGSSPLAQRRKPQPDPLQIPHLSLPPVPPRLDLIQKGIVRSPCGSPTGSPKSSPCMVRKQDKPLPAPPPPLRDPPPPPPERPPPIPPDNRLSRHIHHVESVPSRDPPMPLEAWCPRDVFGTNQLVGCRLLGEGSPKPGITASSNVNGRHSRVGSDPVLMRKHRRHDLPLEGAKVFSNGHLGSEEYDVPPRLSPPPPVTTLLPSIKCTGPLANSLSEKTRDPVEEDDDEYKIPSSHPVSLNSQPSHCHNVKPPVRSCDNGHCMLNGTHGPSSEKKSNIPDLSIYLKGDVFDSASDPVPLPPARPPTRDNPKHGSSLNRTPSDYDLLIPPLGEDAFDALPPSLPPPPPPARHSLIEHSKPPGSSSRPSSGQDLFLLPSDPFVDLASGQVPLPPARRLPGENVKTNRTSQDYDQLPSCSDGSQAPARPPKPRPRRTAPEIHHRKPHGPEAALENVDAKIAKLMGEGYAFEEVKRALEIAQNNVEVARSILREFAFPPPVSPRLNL

For `C[C@H]1CCCN(Cc2cc(C(F)(F)F)c3cn(-c4cccc([C@H](c5nncn5C)C5CNC5)c4)c(=O)n3c2)C1` [Compound 403], the IC50 (read-out: Updated Activity) is above 10000 nM. Same read-out and setting: the same measure for `Cn1cnnc1[C@@H](c1cc(-n2cc3c(C(F)(F)F)cccn3c2=O)cs1)C1CCC1` [Compound 403_P1]: above 10000 nM.

As for `Cn1cnnc1[C@H](c1cc(-n2cc3c(C(F)(F)F)cccn3c2=O)cs1)C1CCC1` [Compound 403_P2], the IC50 (read-out: Updated Activity) fell in the range of 301 to 1000 nM. As to `Cn1cnnc1[C@@H](c1cccc(-n2cc3c(C(F)(F)F)cc(CN4CCC5(CC5)C4)cn3c2=O)c1)C1COC1` [Compound 412], the IC50 (read-out: Updated Activity) was below 100 nM. Turning to `Cn1cnnc1[C@@H](c1cccc(-n2cc3c(C(F)(F)F)cc(CN4CCC(C)(F)CC4)cn3c2=O)c1)C1COC1` [Compound 413], under “read-out: Updated Activity”, the IC50 is below 100 nM. Still for that read-out and setting: next, `Cn1cnnc1[C@@H](c1cccc(-n2cc3c(C(F)(F)F)cc(CN4CCC(F)CC4)cn3c2=O)c1)C1COC1` [Compound 414]: below 100 nM; `COC1CCN(Cc2cc(C(F)(F)F)c3cn(-c4cccc([C@H](c5nncn5C)C5COC5)c4)c(=O)n3c2)CC1` [Compound 415]: below 100 nM. Same read-out and setting: the same measure for `C[C@@H]1CCCN(Cc2cc(C(F)(F)F)c3cn(-c4cccc(C5(Cc6nncn6C)COC5)c4)c(=O)n3c2)C1` [Compound 416]: below 100 nM. The same measure, in the same setting: next, `Cn1cnnc1[C@@H](c1cccc(-n2cc3c(C(F)(F)F)cc(C(=O)N4CCC5(CC5)C4)cn3c2=O)c1)C1CCC1` [Compound 429]: 100 to 300 nM; `Cn1cnnc1[C@@H](c1cccc(-n2cc3c(C(F)(F)F)cc(C(=O)N4CCC(C)(F)CC4)cn3c2=O)c1)C1CCC1` [Compound 430]: 301 to 1000 nM; `C[C@H]1CCCN(Cc2cc(C(F)(F)F)c3cn(-c4cccc(Cc5cccnn5)c4)c(=O)n3c2)C1` [Compound 431]: above 10000 nM. In the case of `C[C@@H]1CN(Cc2cc(C(F)(F)F)c3cn(-c4cccc(C5(c6nncn6C)CCC5)c4)c(=O)n3c2)CCO1` [Compound 432], the IC50 (read-out: Updated Activity) was above 10000 nM. Where the note is “Updated Activity”, `C[C@H]1CCCN(Cc2cc(C(F)(F)F)c3cn(-c4cccc(C5(c6nncn6C)CC(C)(C)C5)c4)c(=O)n3c2)C1` [Compound 433] displayed an IC50 below 100 nM. `CC(=O)N1CC([C@@H](c2cccc(-n3cc4c(C(F)(F)F)cc(CN5CCC[C@H](C)C5)cn4c3=O)c2)c2nncn2C)C1` [Compound 434_P1]: the IC50 (read-out: Updated Activity) is above 10000 nM. Same read-out and setting: the same measure for `CC(=O)N1CC([C@H](c2cccc(-n3cc4c(C(F)(F)F)cc(CN5CCC[C@H](C)C5)cn4c3=O)c2)c2nncn2C)C1` [Compound 434_P2]: 1000 to 3000 nM.

As to `C[C@@H]1C[C@H](C)CN(Cc2cc(C(F)(F)F)c3cn(-c4cccc([C@H](c5nncn5C)C5CCC5)c4)c(=O)n3c2)C1` [Compound 449], the IC50 (read-out: Updated Activity) was below 100 nM.

As to `Cn1cnnc1C1(c2cccc(-n3cc4c(C(F)(F)F)cc(CN5CCC6(CC6)C5)cn4c3=O)c2)CCC1` [Compound 450], the IC50 (read-out: Updated Activity) is below 100 nM.

On to `Cn1cnnc1C1(c2cccc(-n3cc4c(C(F)(F)F)cc(CN5CC6(CC6)C5)cn4c3=O)c2)CCC1` [Compound 451], for which, under “read-out: Updated Activity”, the IC50 is below 100 nM. Still for that read-out and setting: the same measure for `C[C@H]1CCCN(Cc2cc(C(F)(F)F)c3cn(-c4cccc(C(=C5CCC5)c5nncn5C)c4)c(=O)n3c2)C1` [Compound 466]: below 100 nM. With `Cn1cnnc1[C@@H](c1cccc(-n2cc3c(C(F)(F)F)cc(CN4CCCOC4=O)cn3c2=O)c1)C1CCC1` [Compound 467], the IC50 (read-out: Updated Activity) is below 100 nM. Same read-out and setting: the same measure for `Cn1cnnc1[C@@H](c1cccc(-n2cc3c(C(F)(F)F)cc(CN4CCOC4=O)cn3c2=O)c1)C1CCC1` [Compound 468]: below 100 nM; for `COC(=O)N(C)Cc1cc(C(F)(F)F)c2cn(-c3cccc([C@H](c4nncn4C)C4CCC4)c3)c(=O)n2c1` [Compound 469]: below 100 nM.

As for `C[C@H]1CCCN(Cc2cc(C(F)(F)F)c3cn(-c4cccc([C@H](c5nncn5C)C5CN(C)C5)c4)c(=O)n3c2)C1` [Compound 470_P1], the IC50 (read-out: Updated Activity) is above 10000 nM. For the compound `C[C@H]1CCCN(Cc2cc(C(F)(F)F)c3cn(-c4cccc([C@@H](c5nncn5C)C5CN(C)C5)c4)c(=O)n3c2)C1` [Compound 470_P2], where the note is “read-out: Updated Activity”, the IC50 is above 10000 nM.

`Cn1cnnc1C1(c2cccc(-n3cc4c(C(F)(F)F)cc(CN5CCC(C)(F)CC5)cn4c3=O)c2)CCC1` [Compound 471]: the IC50 (read-out: Updated Activity) was below 100 nM. The same measure, in the same setting: the same measure for `C[C@H]1CCCN(Cc2cc(C(F)(F)F)c3cn(-c4cccc([C@@H](c5nncn5C)C5CC5)c4)c(=O)n3c2)C1` [Compound 472_P1]: 100 to 300 nM; for `C[C@H]1CCCN(Cc2cc(C(F)(F)F)c3cn(-c4cccc([C@H](c5nncn5C)C5CC5)c4)c(=O)n3c2)C1` [Compound 472_P2]: below 100 nM. On the same count and under the same terms, the same measure for `Cn1cnnc1C1(c2cccc(-n3cc4c(C(F)(F)F)cc(CN5CCc6ncsc6C5)cn4c3=O)c2)CCC1` [Compound 473]: below 100 nM; for `CN1CCCN(Cc2cc(C(F)(F)F)c3cn(-c4cccc([C@H](c5nncn5C)C5CCC5)c4)c(=O)n3c2)C1=O` [Compound 482]: below 100 nM; for `CN1CCN(Cc2cc(C(F)(F)F)c3cn(-c4cccc([C@H](c5nncn5C)C5CCC5)c4)c(=O)n3c2)C1=O` [Compound 483]: below 100 nM. Still for that read-out and setting: the same measure for `CN(C)C(=O)N(C)Cc1cc(C(F)(F)F)c2cn(-c3cccc([C@H](c4nncn4C)C4CCC4)c3)c(=O)n2c1` [Compound 484]: below 100 nM. As to `[2H]C([2H])(c1cc(C(F)(F)F)c2cn(-c3cccc([C@H](c4nncn4C)C4CCC4)c3)c(=O)n2c1)N1CCC[C@H](C)C1` [Compound 487], where the note is “read-out: Updated Activity”, the IC50 is below 100 nM. The same measure, in the same setting: next, `C[C@H]1COCCN1Cc1cc(C(F)(F)F)c2cn(-c3cccc([C@H](c4nncn4C)C4CCC4)c3)c(=O)n2c1` [Compound 488]: below 100 nM; `C[C@@H]1COCCN1Cc1cc(C(F)(F)F)c2cn(-c3cccc([C@H](c4nncn4C)C4CCC4)c3)c(=O)n2c1` [Compound 489]: below 100 nM.

In the case of `[2H]C([2H])(c1cc(C(F)(F)F)c2cn(-c3cccc(C4(Cc5nncn5C)COC4)c3)c(=O)n2c1)N1CCC[C@H](C)C1` [Compound 490], for the setting “read-out: Updated Activity”, the IC50 was below 100 nM. The same measure, in the same setting: next, `C[C@@H]1CCCN(Cc2cc(C(F)(F)F)c3cn(-c4cccc([C@H](c5nncn5C)C5CCC5)c4)c(=O)n3c2)C1` [Compound 491]: below 100 nM; `CN1C(=O)CCN1Cc1cc(C(F)(F)F)c2cn(-c3cccc([C@H](c4nncn4C)C4CCC4)c3)c(=O)n2c1` [Compound 498]: below 100 nM; `Cn1cnnc1CC1(c2cccc(-n3cc4c(C(F)(F)F)cc(CN5CCC(OCCN)CC5)cn4c3=O)c2)COC1` [Compound 499]: below 100 nM. As for `COCCn1ccnc1-c1cc(C(F)(F)F)c2cn(-c3cccc([C@H](c4nncn4C)C4CCC4)c3)c(=O)n2c1` [Compound 502], under “read-out: Updated Activity”, the IC50 was below 100 nM.

On to `Cn1cnnc1[C@@H](c1cccc(-n2cc3c(C(F)(F)F)cc(CN4CCC5(CC4)CC5)cn3c2=O)c1)C1CCC1` [Compound 503], for which the IC50 (read-out: Updated Activity) is below 100 nM.

Take `[2H]C([2H])(c1cc(C(F)(F)F)c2cn(-c3cccc([C@H](c4nncn4C)C4CCC4)c3)c(=O)n2c1)N1CC2(CC2)C1` [Compound 504]: the IC50 (read-out: Updated Activity) was below 100 nM. Still for that read-out and setting: the same measure for `[2H]C([2H])(c1cc(C(F)(F)F)c2cn(-c3cccc([C@H](c4nncn4C)C4CCC4)c3)c(=O)n2c1)N1CCC2(CC2)C1` [Compound 505]: below 100 nM.
